Laboratory results as given in patent US20210340526A1, “NOVEL METHOD FOR TRANSDUCING PROTEIN-PROTEIN INTERACTIONS” (ETH ZÜRICH, priority 2018, published 2021).
One block for each compound: values may come before it.

Legend:
FKBP and FRB^T2098L = FKBP and FRB^T2098L (Homo sapiens, UniProt P42345+P62942, T2098L); assay: two-component (NarX/NarL) reporter assay of ligand-induced FKBP/FRB heterodimerization in HEK293 cells; format: cell-based; settings: pair FR::H^mut and FK::N^mut, NarL and NarL-activated mCerulean reporter, HEK293, Hill function fit of dose-response; read-out: EC50 in the context of the assay
Excerpt: To enable bona fide signalling, the dimerization of the NarX domains should be preferably controlled by an external stimulus. Inducible protein-protein interaction is a common signalling mechanism both in the cytoplasm and across the membrane. A well characterized ligand-induced heterodimerization takes place between the proteins FK506-binding protein 12 (FKBP) and FKBP12-rapamycin binding domain (FRB) mutant FRB^T2098L in the presence of the small molecule A/C heterodimerize (a rapamycin analog Cl 6-(S)-7-methylindolerapamycin, known also as AP21967).
To find out if NarX domains are capable of transducing this interaction (FIG. 3a), the complementing histidine and asparagine NarX mutants described above were fused at their N-terminus to the FKBP (FK) and the FRB^T2098L (FR) proteins, respectively, resulting in the fusions FK::NarX^379to598H399Q (FK::H^mut) and FR::NarX^379to598N509A (FR::N^mut), and the inverse pair FR::H^mut and FK::N^mut. […] Next, the inventors probed the ligand-induced signalling in a fashion similar to the one used for SynZip1-SynZip2 experiments, expressing different fusion variants and control constructs in HEK293 cells, in the presence of the response regulator NarL and NarL-activated reporter construct, this time with and without the ligand (FIG. 3b, FIG. 8). As expected, full length wild type NarX was constitutively active. […]

NarX/NarL system = assay: control: effect of ligand on NarX/NarL signalling in HEK cells; format: cell-based; settings: 100 nM; HEK cells with NarX or NarX^379to598, NarL and NarL-activated reporter
Protocol: To find out if NarX domains are capable of transducing this interaction (FIG. 3a), the complementing histidine and asparagine NarX mutants described above were fused at their N-terminus to the FKBP (FK) and the FRB^T2098L (FR) proteins, respectively, resulting in the fusions FK::NarX^379to598H399Q (FK::H^mut) and FR::NarX^379to598N509A (FR::N^mut), and the inverse pair FR::H^mut and FK::N^mut. […]
The cells were prepared for FACS analysis 48 h after transfection by removing the medium and incubating the cells with 200 μl StemPro™ Accutase™ Cell Dissociation Reagent (Gibco, cat #A11105-01) at 37° C. for 5 minutes. […] The prepared samples were measured using a BD LSR Fortessa II Cell Analyzer with a combination of excitation and emission that minimizes the crosstalk between different fluorescent reporters. Cerulean was measured with a 445 nm laser and a 473/10 nm emission filter, mCherry with a 561 nm excitation laser coupled to a 600 nm longpass filter and 610/20 emission filter. The Cerulean and the mCherry were measured, respectively, at PMT voltage of 330 and 310 in all the experiments. […]

GPCR ADRB2-AVPR2 = target: T1, GPCR ADRB2-AVPR2 (Homo sapiens, UniProt P07550, E27Q/G16R); assay: two-component (NarX/NarL) reporter assay of GPCR/beta-arrestin interaction, pair ADRB2-AVPR2::H^mut and beta-arrestin::N^mut, in HEK293 cells; format: cell-based
T1 construct: expressed in transfected cells; host or cells: HEK293

CMV promoter = assay: iRFP expression from constitutive promoter under stimulation, HEK cells; format: cell-based; settings: 1 μM of procaterol or 2 μM of epinephrine versus DMEM without ligand
Protocol: (§1) (a) iRFP fluorescence of HEK cells transfected with the plasmid expressing iRFP from the CMV promoter (white bar) or from the EF1α promoter (black bars). The reporter expression in DMEM without any ligand or in the presence of 1 μM of procaterol or 2 μM of epinephrine is shown as indicated. The bar charts display iRFP level normalized to the frequency of the transfection marker Citrine-positive cells (rel. u.) as mean±SD of independent biological triplicates. (b) Activity of the NarX/NarL expressed from CMV or EF1a promoters. Every transfection contains NarL-regulated mCerulean fluorescent protein reporter and plasmids expressing NarL and NarX from CMV, EF1α or EF1α-V1 promoters, as indicated in the chart.
(§2) For any synthetic signalling system, it is important to avoid non-specific changes to the signalling readout. In the system of the invention, the components are expressed from constitutive promoters. However, these promoters are in fact controlled by highly-expressed transcription factors such as Sp1, and there is always a risk that these factors are directly affected by external stimuli via unrelated endogenous pathways. This would result in the change of constitutive expression, and apparent change in the signalling readout that is unrelated to the studied effect and is artefactual. To eliminate these confounding factors, the inventors examined a number of constitutive promoters for their robustness under various stimulation conditions and compared the expression of iRFP from the CMV and EF1α promoters in the presence of different compounds often used to induce cell signalling (Epinephrine and procaterol).

EF1α promoter = assay: as above; format: cell-based; settings: 1 μM of procaterol or 2 μM of epinephrine versus DMEM without ligand
Protocol: as §1, §2

[1] = target: ADRB2^1to341::AVPR2^343to371::NarX^379to598 H399Q (UniProt P07550); assay: cell-based or functional assay

FKBP and FRB^T2098L, sequence (P62942 whole entry, the tested form may be a part): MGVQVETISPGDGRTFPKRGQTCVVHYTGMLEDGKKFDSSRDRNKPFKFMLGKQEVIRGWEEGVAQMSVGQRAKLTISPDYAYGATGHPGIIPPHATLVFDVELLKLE
FKBP and FRB^T2098L, sequence (P42345 2012-2144 T2098L limits assumed): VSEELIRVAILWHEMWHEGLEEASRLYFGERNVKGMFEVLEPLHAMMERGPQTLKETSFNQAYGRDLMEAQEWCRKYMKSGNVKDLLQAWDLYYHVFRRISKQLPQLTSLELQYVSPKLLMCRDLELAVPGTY

EC50 (FKBP and FRB^T2098L): 1.3 nM
Compound: Cl 6-(S)-7-methylindolerapamycin [A/C]
effect on signalling via the wild-type NarX/NarL system (NarX/NarL system): did not affect

EC50 (GPCR ADRB2-AVPR2; ADRB2-AVPR2::H^mut and beta-arrestin::N^mut, NarL-regulated mCerulean reporter, HEK293, read-out: EC50 from the dose-response curves): 5 nM
induction dynamic range of procaterol-triggered signalling (GPCR ADRB2-AVPR2; complementary NarX mutants fused to the GPCR receptor and beta-arrestin, with versus without procaterol): above 3 orders of magnitude
maximum response of downstream gene expression (GPCR ADRB2-AVPR2; saturating doses, full agonists): reach the same maximum response
Compound: CCC(NC(C)C)C(O)c1ccc(O)c2[nH]c(=O)ccc12 (stereo not drawn) [procaterol]
activity of the CMV promoter (iRFP expression) (CMV promoter): induced by a factor of two
activity of the EF1α promoter (iRFP expression) (EF1α promoter): not affected
effect on signalling via the wild-type NarX/NarL system (NarX/NarL system): did not affect

Compound: CNC[C@H](O)c1ccc(O)c(O)c1 [epinephrine]
activity of the CMV promoter (iRFP expression) (CMV promoter): induced by a factor of two
activity of the EF1α promoter (iRFP expression) (EF1α promoter): not affected

EC50 of the small-molecule agonist isoproterenol for reporter induction [1]: 30 nM
EC50 of the small-molecule agonist procaterol for reporter induction [1]: 5 nM
EC50 of the small-molecule partial agonist clenbuterol for reporter induction [1]: 14 nM
IC50 of the small-molecule antagonist propranolol in the presence of procaterol (reporter) [1]: 2 nM
reporter expression with the partial agonist clenbuterol against the full agonists [1]: 3.5 times lower
Compound: ARRB2::NarX^379to598 N509A (from UniProt P32121 1-409)
